Laboratory results taken from article PMC5909127, “Optimization of a “bump-and-hole” approach to allele-selective BET bromodomain inhibition” (Chemical Science, 2018).

Legend:
BRD2 BD2 WT = BRD2 BD2 WT (Homo sapiens, UniProt P25440); assay: competitive AlphaLISA; type: binding
AMPK (hum) = AMPK (hum) (Homo sapiens, UniProt Q13131); assay: kinase Express Screen; type: biochemical
Method: (§1) Kinase Remaining activity
(§2) Table S9. 9-ME-1 Kinase Screen
(§3) Activity of panel of human kinases following treatment with 1 µM (2R, 3S)-7. Dundee MRC-PPU Express Screen
(§4) (http://www.kinase-screen.mrc.ac.uk/services/express-screen)

Aurora B = Aurora B (Homo sapiens, UniProt Q96GD4); assay: kinase Express Screen; type: biochemical
Method: as §1, §2, §3, §4

BTK = BTK (Homo sapiens, UniProt Q06187); assay: kinase Express Screen; type: biochemical
Sequence of BTK (Q06187 whole entry): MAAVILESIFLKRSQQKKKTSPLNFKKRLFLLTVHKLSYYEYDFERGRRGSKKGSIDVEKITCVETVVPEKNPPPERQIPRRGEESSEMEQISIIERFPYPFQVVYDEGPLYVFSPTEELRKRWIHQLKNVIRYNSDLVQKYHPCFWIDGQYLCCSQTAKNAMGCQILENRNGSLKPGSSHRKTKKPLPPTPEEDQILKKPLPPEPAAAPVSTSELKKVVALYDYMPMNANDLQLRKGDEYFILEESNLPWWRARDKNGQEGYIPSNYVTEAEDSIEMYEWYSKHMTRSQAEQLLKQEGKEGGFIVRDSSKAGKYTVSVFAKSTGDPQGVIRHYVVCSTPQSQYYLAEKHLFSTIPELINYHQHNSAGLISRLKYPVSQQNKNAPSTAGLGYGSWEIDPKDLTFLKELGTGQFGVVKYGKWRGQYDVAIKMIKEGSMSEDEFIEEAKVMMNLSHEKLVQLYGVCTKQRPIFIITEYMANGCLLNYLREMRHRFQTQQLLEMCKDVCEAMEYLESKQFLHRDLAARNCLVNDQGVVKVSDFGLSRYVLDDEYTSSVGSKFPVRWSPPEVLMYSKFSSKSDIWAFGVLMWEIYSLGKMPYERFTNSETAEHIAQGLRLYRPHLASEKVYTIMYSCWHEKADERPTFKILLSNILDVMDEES
Method: as §1, §2, §3, §4

CAMK1 = CAMK1 (Homo sapiens, UniProt Q14012); assay: kinase Express Screen; type: biochemical
Method: as §1, §2, §3, §4

CAMKKb = CAMKKb (Homo sapiens, UniProt Q96RR4); assay: kinase Express Screen; type: biochemical
Method: as §1, §2, §3, §4

CHK2 = CHK2 (Homo sapiens, UniProt O96017); assay: kinase Express Screen; type: biochemical
Method: as §1, §2, §3, §4

CK1δ = CK1δ (Homo sapiens, UniProt P48730); assay: kinase Express Screen; type: biochemical
Sequence of CK1δ (P48730 whole entry): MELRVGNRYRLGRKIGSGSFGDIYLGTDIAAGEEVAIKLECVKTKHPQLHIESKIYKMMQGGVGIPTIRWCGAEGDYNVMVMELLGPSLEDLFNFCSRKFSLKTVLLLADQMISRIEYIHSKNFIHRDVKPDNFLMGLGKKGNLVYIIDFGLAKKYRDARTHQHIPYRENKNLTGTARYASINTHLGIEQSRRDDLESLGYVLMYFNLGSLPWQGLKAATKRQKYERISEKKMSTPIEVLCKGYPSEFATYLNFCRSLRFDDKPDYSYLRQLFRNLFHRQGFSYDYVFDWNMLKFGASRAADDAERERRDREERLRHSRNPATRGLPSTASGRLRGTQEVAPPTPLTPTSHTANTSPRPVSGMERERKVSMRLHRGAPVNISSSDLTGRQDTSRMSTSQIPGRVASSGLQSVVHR
Method: as §1, §2, §3, §4

CK2 = CK2 (Homo sapiens, UniProt P68400); assay: kinase Express Screen; type: biochemical
Method: as §1, §2, §3, §4

DYRK1A = DYRK1A (Homo sapiens, UniProt Q13627); assay: kinase Express Screen; type: biochemical
Method: as §1, §2, §3, §4

EF2K = EF2K (Homo sapiens, UniProt O00418); assay: kinase Express Screen; type: biochemical
Sequence of EF2K (O00418 whole entry): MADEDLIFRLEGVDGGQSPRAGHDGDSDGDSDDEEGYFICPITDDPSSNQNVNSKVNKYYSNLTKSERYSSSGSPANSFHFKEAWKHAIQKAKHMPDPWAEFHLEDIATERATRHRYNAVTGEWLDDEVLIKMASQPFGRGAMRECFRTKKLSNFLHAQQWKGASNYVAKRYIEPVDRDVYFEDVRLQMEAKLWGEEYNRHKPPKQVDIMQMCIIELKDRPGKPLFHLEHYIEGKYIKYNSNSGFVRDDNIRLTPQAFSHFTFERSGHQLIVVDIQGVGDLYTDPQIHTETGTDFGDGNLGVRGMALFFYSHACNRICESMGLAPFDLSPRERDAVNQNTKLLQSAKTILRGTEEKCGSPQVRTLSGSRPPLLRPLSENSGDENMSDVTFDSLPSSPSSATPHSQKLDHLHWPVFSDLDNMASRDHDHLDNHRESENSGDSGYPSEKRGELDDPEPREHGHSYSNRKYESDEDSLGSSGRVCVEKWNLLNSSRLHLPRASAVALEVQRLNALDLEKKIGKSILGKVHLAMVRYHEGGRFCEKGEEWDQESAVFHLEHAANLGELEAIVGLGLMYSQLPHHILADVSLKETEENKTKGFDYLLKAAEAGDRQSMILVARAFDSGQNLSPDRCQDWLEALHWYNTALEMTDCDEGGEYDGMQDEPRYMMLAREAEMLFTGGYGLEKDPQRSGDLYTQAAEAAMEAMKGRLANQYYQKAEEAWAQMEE
Method: as §1, §2, §3, §4

EPH-A2 = EPH-A2 (Homo sapiens, UniProt P29317); assay: kinase Express Screen; type: biochemical
Method: as §1, §2, §3, §4

GSK3b = GSK3b (Homo sapiens, UniProt P49841); assay: kinase Express Screen; type: biochemical
Method: as §1, §2, §3, §4

HER4 = HER4 (Homo sapiens, UniProt Q15303); assay: kinase Express Screen; type: biochemical
Method: as §1, §2, §3, §4

IGF-1R = IGF-1R (Homo sapiens, UniProt P08069); assay: kinase Express Screen; type: biochemical
Method: as §1, §2, §3, §4

JAK3 = JAK3 (Homo sapiens, UniProt P52333); assay: kinase Express Screen; type: biochemical
Method: as §1, §2, §3, §4

Lck = Lck (Homo sapiens, UniProt P06239); assay: kinase Express Screen; type: biochemical
Sequence of Lck (P06239 whole entry): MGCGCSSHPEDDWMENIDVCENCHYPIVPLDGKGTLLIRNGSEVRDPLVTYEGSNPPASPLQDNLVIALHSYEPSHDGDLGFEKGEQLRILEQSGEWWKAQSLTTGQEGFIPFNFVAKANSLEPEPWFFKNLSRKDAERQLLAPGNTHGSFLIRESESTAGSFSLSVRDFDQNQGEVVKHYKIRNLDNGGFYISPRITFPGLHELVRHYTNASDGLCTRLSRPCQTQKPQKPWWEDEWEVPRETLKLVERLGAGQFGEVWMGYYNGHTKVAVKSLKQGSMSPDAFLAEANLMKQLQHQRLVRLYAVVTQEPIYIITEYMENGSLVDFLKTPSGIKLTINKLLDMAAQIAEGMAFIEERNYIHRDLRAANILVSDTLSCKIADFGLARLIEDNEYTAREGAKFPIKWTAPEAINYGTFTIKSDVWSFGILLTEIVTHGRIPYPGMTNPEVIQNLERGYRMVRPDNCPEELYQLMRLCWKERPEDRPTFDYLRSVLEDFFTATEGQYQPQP
Method: as §1, §2, §3, §4

MLK3 = MLK3 (Homo sapiens, UniProt Q16584); assay: kinase Express Screen; type: biochemical
Method: as §1, §2, §3, §4

MSK1 = MSK1 (Homo sapiens, UniProt O75582); assay: kinase Express Screen; type: biochemical
Method: as §1, §2, §3, §4

MST2 = MST2 (Homo sapiens, UniProt Q13188); assay: kinase Express Screen; type: biochemical
Method: as §1, §2, §3, §4

NEK6 = NEK6 (Homo sapiens, UniProt Q9HC98); assay: kinase Express Screen; type: biochemical
Method: as §1, §2, §3, §4

PAK4 = PAK4 (Homo sapiens, UniProt O96013); assay: kinase Express Screen; type: biochemical
Method: as §1, §2, §3, §4

PDK1 = PDK1 (Homo sapiens, UniProt O15530); assay: kinase Express Screen; type: biochemical
Method: as §1, §2, §3, §4

PIM1 = PIM1 (Homo sapiens, UniProt P11309); assay: kinase Express Screen; type: biochemical
Method: as §1, §2, §3, §4

PKA = PKA (Homo sapiens, UniProt P17612); assay: kinase Express Screen; type: biochemical
Method: as §1, §2, §3, §4

PKBa = PKBa (Homo sapiens, UniProt P31749); assay: kinase Express Screen; type: biochemical
Sequence of PKBa (P31749 whole entry): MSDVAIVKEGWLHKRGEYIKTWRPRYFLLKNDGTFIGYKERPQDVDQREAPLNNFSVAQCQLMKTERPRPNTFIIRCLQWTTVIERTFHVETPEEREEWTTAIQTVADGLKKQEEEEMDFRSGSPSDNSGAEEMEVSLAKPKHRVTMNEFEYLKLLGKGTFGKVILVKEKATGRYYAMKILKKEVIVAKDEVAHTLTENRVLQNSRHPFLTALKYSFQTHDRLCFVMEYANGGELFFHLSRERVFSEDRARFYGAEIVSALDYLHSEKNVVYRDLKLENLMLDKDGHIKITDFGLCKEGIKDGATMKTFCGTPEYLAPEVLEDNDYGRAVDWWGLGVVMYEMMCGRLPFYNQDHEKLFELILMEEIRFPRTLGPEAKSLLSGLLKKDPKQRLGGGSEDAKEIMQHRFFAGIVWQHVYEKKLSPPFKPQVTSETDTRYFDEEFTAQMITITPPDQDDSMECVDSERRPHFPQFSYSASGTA
Method: as §1, §2, §3, §4

PKCa = PKCa (Homo sapiens, UniProt P17252); assay: kinase Express Screen; type: biochemical
Method: as §1, §2, §3, §4

PLK1 = PLK1 (Homo sapiens, UniProt P53350); assay: kinase Express Screen; type: biochemical
Method: as §1, §2, §3, §4

PRK2 = PRK2 (Homo sapiens, UniProt Q16513); assay: kinase Express Screen; type: biochemical
Sequence of PRK2 (Q16513 whole entry): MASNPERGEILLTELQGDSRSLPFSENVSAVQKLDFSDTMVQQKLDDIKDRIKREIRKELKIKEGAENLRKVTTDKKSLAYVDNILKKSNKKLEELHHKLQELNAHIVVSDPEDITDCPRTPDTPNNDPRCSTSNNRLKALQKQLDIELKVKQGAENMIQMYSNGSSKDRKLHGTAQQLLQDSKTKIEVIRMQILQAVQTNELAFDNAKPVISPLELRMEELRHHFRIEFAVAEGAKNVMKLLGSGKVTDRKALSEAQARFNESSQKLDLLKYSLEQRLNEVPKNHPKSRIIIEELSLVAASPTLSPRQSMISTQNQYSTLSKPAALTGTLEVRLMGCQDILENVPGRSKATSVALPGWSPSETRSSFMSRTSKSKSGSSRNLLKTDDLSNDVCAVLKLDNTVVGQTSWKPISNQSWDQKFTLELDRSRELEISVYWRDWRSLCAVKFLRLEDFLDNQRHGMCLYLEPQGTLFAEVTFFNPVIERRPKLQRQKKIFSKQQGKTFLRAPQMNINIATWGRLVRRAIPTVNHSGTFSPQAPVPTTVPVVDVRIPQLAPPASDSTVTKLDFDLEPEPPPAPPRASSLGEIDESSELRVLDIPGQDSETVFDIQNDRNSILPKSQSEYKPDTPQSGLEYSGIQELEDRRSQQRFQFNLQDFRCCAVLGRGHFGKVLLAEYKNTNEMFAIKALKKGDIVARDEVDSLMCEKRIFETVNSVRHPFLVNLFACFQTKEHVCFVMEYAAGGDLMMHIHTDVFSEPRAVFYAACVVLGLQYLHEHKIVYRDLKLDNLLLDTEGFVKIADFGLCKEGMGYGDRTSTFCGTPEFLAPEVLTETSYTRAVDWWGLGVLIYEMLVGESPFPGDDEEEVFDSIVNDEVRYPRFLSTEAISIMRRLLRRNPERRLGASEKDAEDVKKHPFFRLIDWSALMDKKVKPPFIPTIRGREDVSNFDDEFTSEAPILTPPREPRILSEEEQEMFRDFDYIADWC
Method: as §1, §2, §3, §4

RIPK2 = RIPK2 (Homo sapiens, UniProt O43353); assay: kinase Express Screen; type: biochemical
Method: as §1, §2, §3, §4

ROCK 2 = ROCK 2 (Homo sapiens, UniProt O75116); assay: kinase Express Screen; type: biochemical
Method: as §1, §2, §3, §4

RSK1 = RSK1 (Homo sapiens, UniProt Q15418); assay: kinase Express Screen; type: biochemical
Method: as §1, §2, §3, §4

S6K1 = S6K1 (Homo sapiens, UniProt P23443); assay: kinase Express Screen; type: biochemical
Method: as §1, §2, §3, §4

SGK1 = SGK1 (Homo sapiens, UniProt O00141); assay: kinase Express Screen; type: biochemical
Method: as §1, §2, §3, §4

SRPK1 = SRPK1 (Homo sapiens, UniProt Q96SB4); assay: kinase Express Screen; type: biochemical
Method: as §1, §2, §3, §4

SmMLCK = SmMLCK (Homo sapiens, UniProt Q15746); assay: kinase Express Screen; type: biochemical
Method: as §1, §2, §3, §4

TAK1 = TAK1 (Homo sapiens, UniProt O43318); assay: kinase Express Screen; type: biochemical
Method: as §1, §2, §3, §4

TBK1 = TBK1 (Homo sapiens, UniProt Q9UHD2); assay: kinase Express Screen; type: biochemical
Method: as §1, §2, §3, §4

TTK = TTK (Homo sapiens, UniProt P33981); assay: kinase Express Screen; type: biochemical
Sequence of TTK (P33981 whole entry): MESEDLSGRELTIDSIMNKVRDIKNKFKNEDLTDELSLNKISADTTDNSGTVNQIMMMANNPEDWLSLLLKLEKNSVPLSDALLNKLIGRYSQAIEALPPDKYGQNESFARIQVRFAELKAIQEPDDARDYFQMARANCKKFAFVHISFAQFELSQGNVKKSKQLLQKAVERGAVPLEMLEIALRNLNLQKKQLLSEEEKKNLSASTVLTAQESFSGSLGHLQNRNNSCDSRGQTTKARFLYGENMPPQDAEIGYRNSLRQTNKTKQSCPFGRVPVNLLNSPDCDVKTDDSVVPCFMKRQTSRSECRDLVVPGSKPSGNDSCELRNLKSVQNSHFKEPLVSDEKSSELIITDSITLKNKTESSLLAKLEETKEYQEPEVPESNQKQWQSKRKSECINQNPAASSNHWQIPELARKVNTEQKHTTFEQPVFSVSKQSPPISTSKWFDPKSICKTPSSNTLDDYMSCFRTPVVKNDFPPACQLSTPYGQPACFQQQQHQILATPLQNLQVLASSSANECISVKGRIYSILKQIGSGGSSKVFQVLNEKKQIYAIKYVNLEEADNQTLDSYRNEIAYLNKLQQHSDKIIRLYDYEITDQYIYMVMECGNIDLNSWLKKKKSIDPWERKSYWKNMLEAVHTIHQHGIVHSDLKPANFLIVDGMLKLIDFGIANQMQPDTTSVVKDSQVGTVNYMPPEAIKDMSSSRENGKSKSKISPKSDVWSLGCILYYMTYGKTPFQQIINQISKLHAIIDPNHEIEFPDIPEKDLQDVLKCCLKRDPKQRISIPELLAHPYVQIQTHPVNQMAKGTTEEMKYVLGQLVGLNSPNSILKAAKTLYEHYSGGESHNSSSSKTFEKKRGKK
Method: as §1, §2, §3, §4

VEG-FR = VEG-FR (Homo sapiens, UniProt P17948); assay: kinase Express Screen; type: biochemical
Method: as §1, §2, §3, §4

p38a MAPK = p38a MAPK (Homo sapiens, UniProt Q16539); assay: kinase Express Screen; type: biochemical
Sequence of p38a MAPK (Q16539 whole entry): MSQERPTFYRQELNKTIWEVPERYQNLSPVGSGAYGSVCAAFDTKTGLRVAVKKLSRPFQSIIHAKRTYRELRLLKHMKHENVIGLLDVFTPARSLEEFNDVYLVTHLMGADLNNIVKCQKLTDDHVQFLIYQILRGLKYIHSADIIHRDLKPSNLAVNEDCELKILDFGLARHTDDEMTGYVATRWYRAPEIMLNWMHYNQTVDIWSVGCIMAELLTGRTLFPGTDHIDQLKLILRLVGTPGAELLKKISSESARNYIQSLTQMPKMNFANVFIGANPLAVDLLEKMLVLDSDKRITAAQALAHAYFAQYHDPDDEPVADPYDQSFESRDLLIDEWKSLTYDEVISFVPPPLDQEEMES
Method: as §1, §2, §3, §4

5-HT2B (h) = 5-HT2B (h) (Homo sapiens, UniProt P41595); assay: CEREP ExpresSProfile; conditions: read-out: Mean % of control specific binding (±SD)
BZD (central) = assay: CEREP ExpresSProfile; type: binding; conditions: 1 µM
5-HT2A (h) = 5-HT2A (h) (Homo sapiens, UniProt P28223); assay: CEREP ExpresSProfile; conditions: read-out: Mean % of control specific binding (±SD)
Excerpt: Receptor Reference Compound Mean % of control specific
Receptor & Ion-Channel Screening
CEREP ExpresSProfile panel

alpha 2 (non-selective) = assay: CEREP ExpresSProfile; type: binding; conditions: 1 µM

Which IC50 (BRD2 BD2 WT) does the source give for CC[C@@H](C(=O)OC)[C@@H]1N=C(c2ccc(Cl)cc2)c2ccc(OC)cc2-n2c(C)nnc21 (racemic) [Compound 8] here?
The IC50 was 3.98 µM.

What does the source list for COC(=O)[C@H](C)[C@@H]1N=C(c2ccc(Cl)cc2)c2ccc(OC)cc2-n2c(C)nnc21 [(2R,3S)-7]?
remaining activity at 1 µM (AMPK (hum)): 104%; remaining activity at 1 µM (Aurora B): 94%; remaining activity at 1 µM (BTK): 96%; remaining activity at 1 µM (CAMK1): 94%; remaining activity at 1 µM (CAMKKb): 101%; remaining activity at 1 µM (CHK2): 107%; remaining activity at 1 µM (CK1δ): 93%; remaining activity at 1 µM (CK2): 97%; remaining activity at 1 µM (DYRK1A): 80%; remaining activity at 1 µM (EF2K): 97%; remaining activity at 1 µM (EPH-A2): 86%; remaining activity at 1 µM (GSK3b): 95%; remaining activity at 1 µM (HER4): 114%; remaining activity at 1 µM (IGF-1R): 93%; remaining activity at 1 µM (JAK3): 95%; remaining activity at 1 µM (Lck): 86%; remaining activity at 1 µM (MLK3): 100%; remaining activity at 1 µM (MSK1): 94%; remaining activity at 1 µM (MST2): 118%; remaining activity at 1 µM (NEK6): 109%; remaining activity at 1 µM (PAK4): 104%; remaining activity at 1 µM (PDK1): 97%; remaining activity at 1 µM (PIM1): 106%; remaining activity at 1 µM (PKA): 92%; remaining activity at 1 µM (PKBa): 95%; remaining activity at 1 µM (PKCa): 96%; remaining activity at 1 µM (PLK1): 89%; remaining activity at 1 µM (PRK2): 100%; remaining activity at 1 µM (RIPK2): 103%; remaining activity at 1 µM (ROCK 2): 88%; remaining activity at 1 µM (RSK1): 99%; remaining activity at 1 µM (S6K1): 93%; remaining activity at 1 µM (SGK1): 103%; remaining activity at 1 µM (SRPK1): 79%; remaining activity at 1 µM (SmMLCK): 112%; remaining activity at 1 µM (TAK1): 108%; remaining activity at 1 µM (TBK1): 98%; remaining activity at 1 µM (TTK): 102%; remaining activity at 1 µM (VEG-FR): 89%; remaining activity at 1 µM (p38a MAPK): 101%; remaining activity at 1 µM (5-HT2B (h)): 109%; Mean % of control specific binding (±SD) (BZD (central)): 105 (10) %; remaining activity at 1 µM (5-HT2A (h)): 100%; Mean % of control specific binding (±SD) (alpha 2 (non-selective)): 98 (0) %
